pKd: −log10 of the molar value.
Columns and labels:
[1] = molecular target: T1, AR (Rattus norvegicus, UniProt P15207)
T1 sequence (P15207 1-902): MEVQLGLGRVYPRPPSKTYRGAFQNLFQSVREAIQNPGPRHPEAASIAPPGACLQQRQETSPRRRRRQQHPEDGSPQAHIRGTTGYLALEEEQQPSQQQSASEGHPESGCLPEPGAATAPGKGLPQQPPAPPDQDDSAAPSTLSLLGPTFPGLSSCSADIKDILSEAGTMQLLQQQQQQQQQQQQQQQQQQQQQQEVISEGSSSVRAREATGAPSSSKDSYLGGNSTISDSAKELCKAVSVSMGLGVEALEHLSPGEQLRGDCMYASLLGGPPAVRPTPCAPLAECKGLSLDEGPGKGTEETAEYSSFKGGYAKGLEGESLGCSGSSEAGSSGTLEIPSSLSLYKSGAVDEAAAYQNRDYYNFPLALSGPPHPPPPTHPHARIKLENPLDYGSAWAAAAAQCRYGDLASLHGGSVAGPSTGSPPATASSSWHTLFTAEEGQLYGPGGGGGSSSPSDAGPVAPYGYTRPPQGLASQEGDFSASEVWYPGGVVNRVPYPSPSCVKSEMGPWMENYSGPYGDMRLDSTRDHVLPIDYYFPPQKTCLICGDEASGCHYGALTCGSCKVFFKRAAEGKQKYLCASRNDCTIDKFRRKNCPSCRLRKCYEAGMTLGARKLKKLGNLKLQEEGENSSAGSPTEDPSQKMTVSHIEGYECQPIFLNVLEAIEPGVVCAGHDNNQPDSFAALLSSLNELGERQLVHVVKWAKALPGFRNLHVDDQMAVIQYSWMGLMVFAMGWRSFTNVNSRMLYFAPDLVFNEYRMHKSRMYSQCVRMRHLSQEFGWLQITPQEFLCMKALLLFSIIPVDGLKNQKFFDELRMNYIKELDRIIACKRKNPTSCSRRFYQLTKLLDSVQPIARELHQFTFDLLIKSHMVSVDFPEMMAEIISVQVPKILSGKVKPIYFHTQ
Text: The activity of compounds of the present invention as AR agonists was investigated in an immature male rat model, a recognized test of anabolic effects in muscle and sustaining effects in sex organs for a given compound, as described in L. G. Hershberger et al., Proc. Soc. […] Biol. Med., 83, 175 (1953); B. L. Beyler et al, “Methods for evaluating anabolic and catabolic agents in laboratory animals”, J. Amer. Med. Women's Ass., 23, 708 (1968); H. Fukuda et al., “Investigations of the levator ani muscle as an anabolic steroid assay”, Nago Dai. […] Nem. 14, 84 (1966) the disclosures of which are herein incorporated by reference.
The basis of this assay lies in the well-defined action of androgenic agents on the maintenance and growth of muscle tissues and sexual accessory organs in animals and man. […] J. Anat. […] Ital. Biol. Sper. […] II. […] Ital. Biol. Sper. 42, 1600 (1966); A. Boris et al., Steroids 15, 61 (1970). As described above, the effects of androgens on maintenance of male sexual accessory organs, such as the prostate and seminal vesicles, is well described. Castration results in rapid involution and atrophy of the prostate and seminal vesicles. This effect can be reversed by exogenous addition of androgens. […]

[2] = molecular target: wild type AR; conditions: read-out: Kd for [3H]-DHT; MDA 453 cells, Scatchard analysis
Experimental: For the whole-cell binding assay, human LNCaP cells (T877A mutant AR) or MDA 453 (wild type AR) in 96-well microtiter plates containing RPMI 1640 or DMEM supplemented with 10% charcoal stripped CA-FBS (Cocaleco Biologicals) respectively, were incubated at 37° C. to remove any endogenous ligand that might be complexed with the receptor in the cells.
For the saturation analysis, the difference between the total binding and the non-specific binding, was defined as specific binding. […] See e.g. D. Rodbard, Mathematics and statistics of ligand assays: an illustrated guide: In: J. Langon and J. J. Clapp, eds., Ligand Assay, Masson Publishing U.S.A., Inc., New York, pp. 45-99, (1981), the disclosure of which is herein incorporated by reference.
Two replicates were used for each sample.

Molecule | potency relative to free T ([1]; TP versus free T) | EC50 (increase in organ weight) ([1]; immature castrated rats) [mg] | pKd [2]
CCC(=O)O[C@H]1CC[C@H]2[C@@H]3CCC4=CC(=O)CC[C@]4(C)[C@H]3CC[C@]12C [TP, testosterone propionate] | 10-30 fold | ~0.03 | 
tritiated dihydrotestosterone [[^3H]-DHT] |  |  | 9.15

From US7632858B2 (priority 2002, dated 2009)
